Assay results published in patent US20250352550A1, “SUBSTITUTED FUROPYRIDINES FOR THERAPEUTIC USE” (MASARYKOVA UNIVERZITA, priority 2022, published 2025).

molecular target: T1, DDR1 (Homo sapiens, UniProt Q08345); assay: HotSpot radiometric kinase assay (Reaction Biology), DDR1; type: biochemical; settings: 200 nM kinase, substrate IRS1tide 20 μM, 33P-ATP, 120 minutes at room temperature
T1 construct: purchased Reaction Biology
Method: (§1) The compounds were profiled in the HotSpot radiometric assays (Reaction Biology).
Briefly, • 1. Substrate indicated in Table 1 was dissolved in freshly prepared reaction buffer (20 mM HEPES (pH 7.5), 10 mM MgCl2, 1 mM EGTA, 0.01% Brij35, 0.02 mg/ml BSA, 0.1 mM Na3VO4, 2 mM DTT, 1% DMSO) at the concentration indicated in Table 1. • 2. Corresponding kinase (concentration indicated in Table 1) was added and the mixture was gently mixed. • 3. Tested compound dissolved in DMSO was added into the kinase reaction mixture. • 4. ^33P-ATP (specific activity 0.01 μCi/μL final) was added into the reaction mixture to initiate the reaction. • 5. The kinase reaction was incubated for 120 minutes at room temperature. • 6. […] The radioactive phosphorylated substrate remaining on the filter paper was measured.
(§2) Kinase activity data were expressed as the percent remaining kinase activity in tested samples compared to the vehicle (DMSO) reactions. IC50 values and curve fits were obtained using Prism4 Software (GraphPad).

T1 sequence (Q08345 19-913): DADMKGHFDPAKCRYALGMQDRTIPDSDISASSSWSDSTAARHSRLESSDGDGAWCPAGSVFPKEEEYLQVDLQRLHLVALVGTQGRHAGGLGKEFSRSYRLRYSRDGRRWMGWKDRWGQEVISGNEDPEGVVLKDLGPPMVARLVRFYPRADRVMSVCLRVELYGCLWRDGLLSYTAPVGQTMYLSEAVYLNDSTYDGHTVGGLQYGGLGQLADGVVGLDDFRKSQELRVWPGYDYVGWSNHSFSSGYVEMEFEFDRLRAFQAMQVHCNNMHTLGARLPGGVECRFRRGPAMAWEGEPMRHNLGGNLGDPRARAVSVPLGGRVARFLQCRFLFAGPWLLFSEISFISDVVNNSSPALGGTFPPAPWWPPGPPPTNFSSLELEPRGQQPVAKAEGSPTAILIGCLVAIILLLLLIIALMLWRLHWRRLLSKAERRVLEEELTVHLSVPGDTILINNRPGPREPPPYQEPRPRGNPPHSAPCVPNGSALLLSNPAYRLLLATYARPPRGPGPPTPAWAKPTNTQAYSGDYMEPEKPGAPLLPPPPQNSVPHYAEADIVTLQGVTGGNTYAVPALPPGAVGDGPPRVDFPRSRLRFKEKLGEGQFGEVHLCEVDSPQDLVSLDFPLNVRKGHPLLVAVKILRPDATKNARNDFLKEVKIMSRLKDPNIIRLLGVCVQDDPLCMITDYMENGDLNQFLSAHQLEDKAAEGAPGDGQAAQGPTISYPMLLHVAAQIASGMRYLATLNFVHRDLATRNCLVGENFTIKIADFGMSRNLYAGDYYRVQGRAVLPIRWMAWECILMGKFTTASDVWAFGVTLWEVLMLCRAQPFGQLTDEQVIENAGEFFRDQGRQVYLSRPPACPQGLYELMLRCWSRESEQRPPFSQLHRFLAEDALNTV

SMILES | IC50 [nM]
CN1CCN(c2ccc(-c3cnc4c(-c5cccc(-c6ccccc6)c5)coc4c3)cc2)CC1 [Preparative Example 158, 3-([1,1′-biphenyl]-3-yl)-6-(4-(4-methylpiperazin-1-yl)phenyl)furo[3,2-b]pyridine] | 184
c1cc(-c2coc3cc(-c4ccc(OCCN5CCCCC5)cc4)cnc23)ccn1 [Preparative Example 171, 6-(4-(2-(piperidin-1-yl)ethoxy)phenyl)-3-(pyridin-4-yl)furo[3,2-b]pyridine] | 365
Cc1c(-c2ccc(N3CCN(C)CC3)cc2)cnc2c(-c3ccccc3)coc12 [Preparative Example 188, 7-methyl-6-(4-(4-methylpiperazin-1-yl)phenyl)-3-phenylfuro[3,2-b]pyridine] | 186
N#Cc1cccc(-c2coc3cc(-c4ccc(N5CCNCC5)cc4)cnc23)c1 [Preparative Example 20, 3-(6-(4-(piperazin-1-yl)phenyl)furo[3,2-b]pyridin-3-yl)benzonitrile] | 160
COc1ccc(-c2coc3cc(-c4ccc(N5CCN(C)CC5)cc4)cnc23)cc1 [Preparative Example 255, 3-(4-methoxyphenyl)-6-(4-(4-methylpiperazin-1-yl)phenyl)furo[3,2-b]pyridine] | 191
CN1CCN(c2ccc(-c3cnc4c(-c5ccccc5)c(-c5ccccc5)oc4c3)cc2)CC1 [Preparative Example 249, 1-(4-{2,3-diphenylfuro[3,2-b]pyridin-6-yl}phenyl)-4-methylpiperazine] | 549
CCCc1oc2cc(-c3ccc(N4CCN(C)CC4)cc3)cnc2c1-c1ccc(C(N)=O)cc1 [Preparative Example 243, 4-{6-[4-(4-methylpiperazin-1-yl)phenyl]-2-propylfuro[3,2-b]pyridin-3-yl}benzamide] | 208

The next lines start with the values.

IC50 [nM] | SMILES
329 | C(#Cc1coc2cc(-c3ccc(N4CCNCC4)cc3)cnc12)c1ccccc1 [Preparative Example 191, 1-{4-[3-(2-phenylethynyl)furo[3,2-b]pyridin-6-yl]phenyl}piperazine]
261 | COc1ccc(-c2coc3cc(-c4ccc(N5CCN(C)CC5)cc4)cnc23)cn1 [Preparative Example 259, 3-(6-methoxypyridin-3-yl)-6-(4-(4-methylpiperazin-1-yl)phenyl)furo[3,2-b]pyridine]
312 | CCCc1oc2cc(-c3ccc(N4CCN(C)CC4)cc3)cnc2c1-c1cnn(C)c1 [Preparative Example 245, 1-methyl-4-{4-[3-(1-methyl-1H-pyrazol-4-yl)-2-propylfuro[3,2-b]pyridin-6-yl]phenyl}piperazine]

molecular target: T2, FLT3 (Homo sapiens, UniProt P36888); assay: HotSpot radiometric kinase assay (Reaction Biology), FLT3; type: biochemical; settings: 4 nM kinase, substrate ABLtide 20 μM, 33P-ATP, 120 minutes at room temperature
T2 construct: purchased Reaction Biology
T2 sequence (P36888 27-993): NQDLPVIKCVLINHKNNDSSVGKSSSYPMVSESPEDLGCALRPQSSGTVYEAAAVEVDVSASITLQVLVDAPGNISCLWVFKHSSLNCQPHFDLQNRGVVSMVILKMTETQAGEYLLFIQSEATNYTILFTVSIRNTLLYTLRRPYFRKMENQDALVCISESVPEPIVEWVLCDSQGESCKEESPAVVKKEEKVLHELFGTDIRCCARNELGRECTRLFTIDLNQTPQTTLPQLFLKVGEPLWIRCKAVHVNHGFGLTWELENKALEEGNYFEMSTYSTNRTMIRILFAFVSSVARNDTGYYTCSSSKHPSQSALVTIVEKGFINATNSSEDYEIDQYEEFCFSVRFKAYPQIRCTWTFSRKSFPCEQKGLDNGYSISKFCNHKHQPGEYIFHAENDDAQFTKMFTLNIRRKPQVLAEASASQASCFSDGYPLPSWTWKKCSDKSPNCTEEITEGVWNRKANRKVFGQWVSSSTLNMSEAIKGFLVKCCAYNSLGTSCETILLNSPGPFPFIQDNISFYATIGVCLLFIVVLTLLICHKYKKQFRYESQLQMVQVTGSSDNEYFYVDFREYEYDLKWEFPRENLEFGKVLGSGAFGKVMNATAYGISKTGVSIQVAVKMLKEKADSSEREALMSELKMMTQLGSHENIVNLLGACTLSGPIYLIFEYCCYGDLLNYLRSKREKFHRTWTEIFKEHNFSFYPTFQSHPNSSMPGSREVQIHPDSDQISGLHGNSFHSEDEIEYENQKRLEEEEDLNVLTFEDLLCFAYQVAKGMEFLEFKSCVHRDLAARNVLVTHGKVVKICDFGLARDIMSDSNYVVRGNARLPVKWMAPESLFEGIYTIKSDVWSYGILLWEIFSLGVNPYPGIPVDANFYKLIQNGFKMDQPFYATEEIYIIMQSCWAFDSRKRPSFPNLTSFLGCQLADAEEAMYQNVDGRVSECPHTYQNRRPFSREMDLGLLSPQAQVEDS
Method: as §1
Briefly, • 1. Substrate indicated in Table 1 was dissolved in freshly prepared reaction buffer (20 mM HEPES (pH 7.5), 10 mM MgCl2, 1 mM EGTA, 0.01% Brij35, 0.02 mg/ml BSA, 0.1 mM Na3VO4, 2 mM DTT, 1% DMSO) at the concentration indicated in Table 1. • 2. Corresponding kinase (concentration indicated in Table 1) was added and the mixture was gently mixed. • 3. Tested compound dissolved in DMSO was added into the kinase reaction mixture. • 4. ^33P-ATP (specific activity 0.01 μCi/μL final) was added into the reaction mixture to initiate the reaction. • 5. The kinase reaction was incubated for 120 minutes at room temperature. • 6. Reaction mixture was spotted onto P81 ion exchange paper (Whatman K 3698-915). • 7. The filters were extensively washed with […]. • 7. The radioactive phosphorylated substrate remaining on the filter paper was measured.
as §2
Table 2 summarizes the inhibitory activities of indicated compounds tested in the in vitro kinase assays described above.

SMILES | IC50 [nM]
Nc1ccc(-c2cnc3c(-c4ccncc4)coc3c2)cc1 [Preparative Example 47, 4-(3-(pyridin-4-yl)furo[3,2-b]pyridin-6-yl)aniline] | 90
c1cc(-c2coc3cc(-c4ccc(OCCN5CCCCC5)cc4)cnc23)ccn1 [Preparative Example 171, 6-(4-(2-(piperidin-1-yl)ethoxy)phenyl)-3-(pyridin-4-yl)furo[3,2-b]pyridine] | 21
c1ccc(Nc2ccc3occ(-c4ccccc4)c3n2)cc1 [compound 8E from WO 2015/165428, reference compound] | 2720
Cc1c(-c2ccc(N3CCN(C)CC3)cc2)cnc2c(-c3ccccc3)coc12 [Preparative Example 188, 7-methyl-6-(4-(4-methylpiperazin-1-yl)phenyl)-3-phenylfuro[3,2-b]pyridine] | 147
N#Cc1cccc(-c2coc3cc(-c4ccc(N5CCNCC5)cc4)cnc23)c1 [Preparative Example 20, 3-(6-(4-(piperazin-1-yl)phenyl)furo[3,2-b]pyridin-3-yl)benzonitrile] | 90
COc1ccc(-c2coc3cc(-c4ccc(N5CCN(C)CC5)cc4)cnc23)cc1 [Preparative Example 255, 3-(4-methoxyphenyl)-6-(4-(4-methylpiperazin-1-yl)phenyl)furo[3,2-b]pyridine] | 141
c1ccc(-c2coc3ccc(Nc4ccc(N5CCOCC5)cc4)nc23)cc1 [compound 8B from WO 2015/165428, reference compound] | 1950
Cc1nc2c(-c3ccncc3)coc2cc1-c1ccc(N2CCN(C)CC2)cc1 [Preparative Example 80, 5-methyl-6-(4-(4-methylpiperazin-1-yl)phenyl)-3-(pyridin-4-yl)furo[3,2-b]pyridine] | 137
c1ccc(-c2coc3ccc(Nc4ccncc4)nc23)cc1 [compound 8D from WO 2015/165428, reference compound] | 1240
Cc1ccc(NC(=O)c2cccc(-c3coc4cc(-c5ccc(N6CCNCC6)cc5)cnc34)c2)cc1 [Preparative Example 119, 3-(6-(4-(piperazin-1-yl)phenyl)furo[3,2-b]pyridin-3-yl)-N-(p-tolyl)benzamide] | 790
c1cc(-c2coc3cc(-c4ccc(N5CCOCC5)nc4)cnc23)ccn1 [Preparative Example 23, 6-(6-morpholinopyridin-3-yl)-3-(pyridin-4-yl)furo[3,2-b]pyridine] | 99
c1ccc(-c2cnc3c(-c4ccncc4)coc3c2)cc1 [Preparative Example 22, 6-phenyl-3-(pyridin-4-yl)furo[3,2-b]pyridine] | 183
c1cc(-c2coc3cc(-c4ccc(N5CCCCC5)nc4)cnc23)ccn1 [Preparative Example 48, 6-(6-(piperidin-1-yl)pyridin-3-yl)-3-(pyridin-4-yl)furo[3,2-b]pyridine] | 136

The remaining lines, values ahead:

IC50 [nM] | SMILES
279 | Cc1cc(-c2coc3cc(-c4ccc(N5CCNCC5)cc4)cnc23)cc(C)n1 [Preparative Example 8, 3-(2,6-dimethylpyridin-4-yl)-6-(4-(piperazin-1-yl)phenyl)furo[3,2-b]pyridine]
46 | NC(=O)Nc1cccc(-c2coc3cc(-c4ccccc4)cnc23)c1 [1-(3-(6-phenylfuro[3,2-b]pyridin-3-yl)phenyl)urea]
608 | CC(C)c1ccc(-c2coc3cc(-c4ccc(N5CCNCC5)cc4)cnc23)cc1 [Preparative Example 67, 3-(4-isopropylphenyl)-6-(4-(piperazin-1-yl)phenyl)furo[3,2-b]pyridine]
122 | CN(C)CCN(C)c1ccc(Nc2cnc3c(-c4ccncc4)coc3c2)cc1 [Preparative Example 98, N^1-(2-(dimethylamino)ethyl)-N^1-methyl-N^4-(3-(pyridin-4-yl)furo[3,2-b]pyridin-6-yl)benzene-1,4-diamine]
1030 | CN1CCN(c2ccc(Nc3ccc4occ(-c5ccccc5)c4n3)cc2)CC1 [compound 8C from WO 2015/165428, reference compound]
54 | CN1CCN(c2ccc(-c3cnc4c(-c5ccc(CC(N)=O)cc5)coc4c3)cc2)CC1 [Preparative Example 236, 2-(4-(6-(4-(4-methylpiperazin-1-yl)phenyl)furo[3,2-b]pyridin-3-yl)phenyl)acetamide]
139 | c1ccc(Nc2cnc3c(-c4ccncc4)coc3c2)cc1 [Preparative Example 84, N-phenyl-3-(pyridin-4-yl)furo[3,2-b]pyridin-6-amine]
496 | CN1CCN(c2ccc(-c3cnc4c(-c5cccc(C(N)=O)c5F)coc4c3)cc2)CC1 [Preparative Example 214, 2-fluoro-3-(6-(4-(4-methylpiperazin-1-yl)phenyl)furo[3,2-b]pyridin-3-yl)benzamide]
113 | CN1CCN(c2ccc(-c3cnc4c(-c5ccc(NC(N)=O)cc5)coc4c3)cc2)CC1 [Preparative Example 251, (4-{6-[4-(4-methylpiperazin-1-yl)phenyl]furo[3,2-b]pyridin-3-yl}phenyl)urea]
203 | c1ncc(-c2coc3cc(-c4ccc(N5CCNCC5)cc4)cnc23)cn1 [Preparative Example 206, 5-{6-[4-(piperazin-1-yl)phenyl]furo[3,2-b]pyridin-3-yl}pyrimidine]
138 | O=S(=O)(NCc1ccccc1)c1cccc(-c2coc3cc(-c4ccc(N5CCNCC5)cc4)cnc23)c1 [Preparative Example 122, N-benzyl-3-(6-(4-(piperazin-1-yl)phenyl)furo[3,2-b]pyridin-3-yl)benzenesulfonamide]
